{"source": "patent US9388172B2", "about": "“Substituted carbamate compounds” (Hoffmann-La Roche Inc., priority 2012, dated 2016)", "note": "Counter-ions that a name gives are not always drawn.", "data": [{"target": "T1, hTRPA1 (Homo sapiens, UniProt O75762)", "T1 construct": "host or cells: CHO-K1 Tet-On HOMSA TRPA1 Clone 20 (Chinese Hamster Ovary cells, inducible expression)", "T1 sequence (O75762 whole entry)": "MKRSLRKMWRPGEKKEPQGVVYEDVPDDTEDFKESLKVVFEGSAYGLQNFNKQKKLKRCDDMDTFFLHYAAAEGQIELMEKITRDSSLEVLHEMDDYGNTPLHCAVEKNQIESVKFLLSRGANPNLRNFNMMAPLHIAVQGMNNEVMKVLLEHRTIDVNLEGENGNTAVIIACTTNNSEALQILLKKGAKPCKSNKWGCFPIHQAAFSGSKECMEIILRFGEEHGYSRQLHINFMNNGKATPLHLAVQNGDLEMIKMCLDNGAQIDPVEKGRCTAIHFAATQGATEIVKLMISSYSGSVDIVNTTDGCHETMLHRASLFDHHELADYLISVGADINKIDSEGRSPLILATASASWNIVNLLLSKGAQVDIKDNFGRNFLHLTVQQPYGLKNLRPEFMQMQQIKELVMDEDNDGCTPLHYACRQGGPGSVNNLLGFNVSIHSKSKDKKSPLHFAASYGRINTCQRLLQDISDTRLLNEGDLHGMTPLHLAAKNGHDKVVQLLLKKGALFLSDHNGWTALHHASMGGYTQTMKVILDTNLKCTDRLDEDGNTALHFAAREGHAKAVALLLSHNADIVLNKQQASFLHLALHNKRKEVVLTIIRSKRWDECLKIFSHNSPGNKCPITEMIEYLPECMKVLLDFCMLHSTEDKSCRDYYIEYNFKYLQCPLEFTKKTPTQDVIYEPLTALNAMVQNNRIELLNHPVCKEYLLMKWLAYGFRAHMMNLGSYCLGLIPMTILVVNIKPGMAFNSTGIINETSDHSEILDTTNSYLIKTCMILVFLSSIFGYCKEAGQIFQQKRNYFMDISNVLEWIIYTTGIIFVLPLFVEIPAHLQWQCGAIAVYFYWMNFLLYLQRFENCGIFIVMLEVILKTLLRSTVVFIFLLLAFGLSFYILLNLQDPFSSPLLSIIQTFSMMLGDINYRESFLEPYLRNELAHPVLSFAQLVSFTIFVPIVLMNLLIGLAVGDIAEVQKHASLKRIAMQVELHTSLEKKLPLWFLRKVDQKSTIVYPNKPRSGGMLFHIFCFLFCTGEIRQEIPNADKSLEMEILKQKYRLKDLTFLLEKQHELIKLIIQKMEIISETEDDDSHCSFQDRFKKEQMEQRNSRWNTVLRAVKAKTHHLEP", "assay": "ChanTest hTRPA1-CHO calcium flux dose response assay (FLIPR, cinnamaldehyde agonist)", "type": "cell-based", "details": "CHO-K1 Tet-On hTRPA1 cells, 100 uM cinnamaldehyde agonist, 30 min compound preincubation", "method": "IC50 Determination of Exemplified Compounds Dose Response Assay: ChanTest hTRPA1-CHO Stably Transfected Cell Line\nCHO-K1 Tet-On HOMSA TRPA1 Clone 20\n0.40 mg/ml Zeocin • The cell line doubling rate was ˜15 hours. […] Experiments were run at 24 hours post induction.\nPlating Conditions CHOK1/TRPA1 Cells: • Harvested cells with 0.025% trypsin/EDTA. • Resuspended cells in growth media without selection antibiotics. • Measured cell density and diluted to 2.4×10^5 cells/ml in media containing 1 ug/ml Doxycycline Plate 25 ul/well into 384 well black/clear tissue culture-treated plates. • Incubated overnight at 37° C.\n• Replacement Buffer: Hank's Balanced Salt Solution, 20 mM HEPES along with 0.005% BSA and 2× Probenecid • Dye Loading Buffer: Cal-3 NW Calcium dye was prepared by dissolving the contents of one vial with 500 ml Hank's Balanced Salt Solution containing 20 mM HEPES.\nControl Compounds for CHOK1/TRPA1 Cells: • AP-18, stock 10 mM, prepare 3.5× compound dilution in a Compound Buffer (HBSS/20 mM HEPES/0.005% BSA)−final concentration 10 uM.\nPreparation of Cinnamaldehyde (Agonist Addition): • FW=132.16 • Specific gravity=1.046 gm/cc • 1.32 gm/1.046 gm/cc=1.26 ml of stock • Add 1.74 ml DMSO=3.3 M stock • Working solution 4.5× (final 100 uM in Compound Buffer: HBSS/20 mM HEPES/0.005% BSA)\nCompounds dilutions were prepared from 5 or 10 mM stock (100% DMSO): • Adjustments of volumes and concentrations were made at time of titration to reflect desired final assay concentrations. • Compounds were tested at either 20 μM three folds dilution 11 steps out or 30 μM two folds dilution 11 steps out. • 3 μl of diluted compound were transferred into Weidmann 384-well plate in duplicates side-by-side. • Compound plates were resuspended with 100 ul of HBSS/20 mM HEPES/0.005% BSA buffer (Compound Buffer): • column 1A-H: buffer/DMSO (bk) • column 2A-H: AP-18 (control antagonist for CHOK1 TRPA1 cells) • column 1I-P: ATP (control for CHOK1 teton cells) • column 2I-P: 2APB (control antagonist for CHOK1/TRPM8 cells).\nGrowth media was removed from the cell plates (20 ul) and 20 ul of the Replacement Buffer was added followed by addition of 25 ul of diluted dye. All three steps were performed using a Plate Washer BioTek 407. The plates were then incubated for 30′ at RT.\nAfter incubation, both the cell and compound plates were brought to the FLIPR and 20 ul of the diluted compounds/antagonist/bk were transferred to the cell plates by the FLIPR. Plates were then incubated for 30′ at room temperature. After 30′ incubation, plates were returned to the FLIPR and 20 ul of 4.5× Cinnamaldehyde was added to the cell plates. During the compound addition as well as agonist addition, fluorescence readings were taken simultaneously from all 384 wells of the cell plate every 1.5 seconds. Five readings were taken to establish a stable baseline, then 20 ul of sample was rapidly (30 ul/sec) and simultaneously added to each well of the cell plate. The fluorescence was continuously monitored before, during and after sample/agonist addition for a total elapsed time of 100 seconds (compound addition) and 120 seconds (agonist addition). Responses (increase in peak fluorescence) in each well following agonist addition was determined. The initial fluorescence reading from each well, prior to ligand stimulation, was used a zero baseline value for the data from that well.", "units": {"IC50": "nM"}, "values": [{"smiles": "FC(F)(F)c1cccc(C2CCCN(CC(Cc3nc4ccc(Cl)cc4o3)C(F)(F)F)C2)c1", "note": "(stereo not drawn) [Example 4, 6-Chloro-2-{3,3,3-trifluoro-2-[3-(3-trifluoromethyl-phenyl)-piperidin-1-ylmethyl]-propyl}-benzooxazole hydrochloride]", "IC50": 12300}, {"smiles": "FC(F)(F)c1ccc(C2CN(CC(Cc3nnc(-c4ccc(Cl)cc4)o3)C(F)(F)F)CCO2)cc1", "note": "(stereo not drawn) [Example 18, 4-{2-[5-(4-Chloro-phenyl)-[1,3,4]oxadiazol-2-ylmethyl]-3,3,3-trifluoro-propyl}-2-(4-trifluoromethyl-phenyl)-morpholinehydrochloride]", "IC50": 267}, {"smiles": "FC(F)(F)c1cccc(C2CCCN(CC(Cc3ncc(-c4ccc(Cl)cc4)[nH]3)C(F)(F)F)C2)c1", "note": "(stereo not drawn) [Example 2, 1-{2-[5-(4-Chlorophenyl)-1H-imidazol-2-ylmethyl]-3,3,3-trifluoro-propyl}-3-(3-trifluoromethyl-phenyl)piperidine hydrochloride]", "IC50": 3700}, {"smiles": "Fc1ccc(-c2nnc(CC(CN3CCOC(c4cccc(C(F)(F)F)c4)C3)C(F)(F)F)o2)cc1", "note": "(stereo not drawn) [Example 12, 4-{3,3,3-Trifluoro-2-[5-(4-fluoro-phenyl)-[1,3,4]oxadiazol-2-ylmethyl]-propyl}-2-(3-trifluoromethyl-phenyl)-morpholine hydrochloride]", "IC50": 112}, {"smiles": "Fc1ccc(-c2nnc(CC(CN3CCOC(c4ccc(C(F)(F)F)cc4)C3)C(F)(F)F)o2)cc1", "note": "(stereo not drawn) [Example 17, 4-{3,3,3-Trifluoro-2-[5-(4-fluoro-phenyl)-[1,3,4]oxadiazol-2-ylmethyl]-propyl}-2-(4-trifluoromethyl-phenyl)-morpholine hydrochloride]", "IC50": 62.1}, {"smiles": "FC(F)(F)c1cccc(C2CCCN(CC(Cc3nnc(-c4ccc(Cl)cc4)o3)C(F)(F)F)C2)c1", "note": "(stereo not drawn) [Example 3, 1-{2-[5-(4-Chloro-phenyl)-[1,3,4]oxadiazol-2-ylmethyl]-3,3,3-trifluoro-propyl}-3-(3-trifluoromethyl-phenyl)-piperidine hydrochloride]", "IC50": 702}, {"smiles": "FC(F)(F)c1cccc(C2CCCN(CC(Cc3ncc(-c4ccc(Cl)cc4)o3)C(F)(F)F)C2)c1", "note": "(stereo not drawn) [Example 13, 1-{2-[5-(4-Chloro-phenyl)-oxazol-2-ylmethyl]-3,3,3-trifluoro-propyl}-3-(3-trifluoromethyl-phenyl)-piperidine hydrochloride]", "IC50": 7270}, {"smiles": "FC(F)(F)c1cccc(C2CCCN(CC(Cc3nc4cc(Cl)ccc4[nH]3)C(F)(F)F)C2)c1", "note": "(stereo not drawn) [Example 1, 5-Chloro-2-{3,3,3-trifluoro-2-[3-(3-trifluoromethyl-phenyl)-piperidin-1-ylmethyl]-propyl}-1H-benzoimidazole hydrochloride]", "IC50": 6720}, {"smiles": "Cc1ccc(-c2nnc(CC(CN3CCCC(c4cccc(C(F)(F)F)c4)C3)C(F)(F)F)o2)cn1", "note": "(stereo not drawn) [Example 10, 2-Methyl-5-(5-{3,3,3-trifluoro-2-[3-(3-trifluoromethyl-phenyl)-piperidin-1-ylmethyl]-propyl}-[1,3,4]oxadiazol-2-yl)-pyridine]", "IC50": 2400}, {"smiles": "Fc1ccc(-c2cnc(CC(CN3CCCC(c4cccc(C(F)(F)F)c4)C3)C(F)(F)F)[nH]2)cc1", "note": "(stereo not drawn) [Example 7, 1-{3,3,3-Trifluoro-2-[5-(4-fluoro-phenyl)-1H-imidazol-2-ylmethyl]-propyl}-3-(3-trifluoromethyl-phenyl)-piperidine hydrochloride]", "IC50": 6050}, {"smiles": "FC(F)(F)c1cccc(C2CN(CC(Cc3nnc(-c4ccc(Cl)cc4)o3)C(F)(F)F)CCO2)c1", "note": "(stereo not drawn) [Example 16, 4-{2-[5-(4-Chlorophenyl)-[1,3,4]oxadiazol-2-ylmethyl]-3,3,3-trifluoropropyl}-2-(3-trifluoromethyl-phenyl)-morpholine hydrochloride]", "IC50": 228}, {"smiles": "Fc1ccc(-c2nnc(CC(CN3CCCC(c4cccc(C(F)(F)F)c4)C3)C(F)(F)F)o2)cc1", "note": "(stereo not drawn) [Example 8, 1-{3,3,3-Trifluoro-2-[5-(4-fluorophenyl)-[1,3,4]oxadiazol-2-ylmethyl]-propyl}-3-(3-trifluoromethyl-phenyl)-piperidine hydrochloride]", "IC50": 116}, {"smiles": "FC(F)(F)c1cccc(C2CCCN(CC(Cc3ncc(-c4ccccc4)[nH]3)C(F)(F)F)C2)c1", "note": "(stereo not drawn) [Example 5, 3-(3-Trifluoromethyl-phenyl)-1-[3,3,3-trifluoro-2-(5-phenyl-1H-imidazol-2-ylmethyl)-propyl]-piperidine hydrochloride]", "IC50": 11200}, {"smiles": "Fc1ccc(-c2nc(CC(CN3CCCC(c4cccc(C(F)(F)F)c4)C3)C(F)(F)F)no2)cc1", "note": "(stereo not drawn) [Example 15, 1-{3,3,3-Trifluoro-2-[5-(4-fluoro-phenyl)-[1,2,4]oxadiazol-3-ylmethyl]-propyl}-3-(3-trifluoromethyl-phenyl)-piperidine hydrochloride]", "IC50": 318}, {"smiles": "FC(F)(F)c1cccc(C2CCCN(CC(Cc3ncc(-c4cccc(Cl)c4)[nH]3)C(F)(F)F)C2)c1", "note": "(stereo not drawn) [Example 6, 1-{2-[5-(3-Chlorophenyl)-1H-imidazol-2-ylmethyl]-3,3,3-trifluoro-propyl}-3-(3-trifluoromethyl-phenyl)piperidine hydrochloride]", "IC50": 2260}, {"smiles": "FC(F)(F)c1cccc(C2CCCN(CC(Cc3nnc(-c4ccc(Cl)cn4)o3)C(F)(F)F)C2)c1", "note": "(stereo not drawn) [Example 11, 5-Chloro-2-(5-{3,3,3-trifluoro-2-[3-(3-trifluoromethyl-phenyl)-piperidin-1-ylmethyl]-propyl}-[1,3,4]oxadiazol-2-yl)-pyridine hydrochloride]", "IC50": 30000}, {"smiles": "FC(F)(F)c1cccc(C2CCCN(CC(Cc3nc(-c4ccc(Cl)cc4)no3)C(F)(F)F)C2)c1", "note": "(mixture of isomers) [Example 14, 1-{2-[3-(4-Chlorophenyl)-[1,2,4]oxadiazol-5-ylmethyl]-3,3,3-trifluoro-propyl}-3-(3-trifluoromethyl-phenyl)-piperidine hydrochloride]", "IC50": 2660}, {"smiles": "FC(F)(F)c1cccc(C2CCCN(CC(Cc3nnc(-c4cccc(Cl)c4)o3)C(F)(F)F)C2)c1", "note": "(stereo not drawn) [Example 9, 1-{2-[5-(3-Chloro-phenyl)-[1,3,4]oxadiazol-2-ylmethyl]-3,3,3-trifluoro-propyl}-3-(3-trifluoromethyl-phenyl)-piperidine hydrochloride]", "IC50": 9110}]}]}
